Experimental data reported in article PMC11285368, “Chasing Red Herrings: Palladium Metal Salt Impurities Feigning KRAS Activity in Biochemical Assays” (Journal of Medicinal Chemistry, 2024).
Like-named read-outs stand apart in the source and are kept apart here.

Assays:
[1] = target: biotinylated GST (Schistosoma japonicum, UniProt P08515); test: Control assay (AlphaScreen Shortcut); assay type: biochemical
Experimental: This assay was developed to identify compounds that interfere with the assay format using AlphaLISA Glutathione Acceptor and AlphaScreen Streptavidin Donor beads. The assay was performed as described above using biotinylated GST as bridging reagent instead of KRAS^G12D and CRAF mix.

[2] = target: KRAS^G12D(GCP) (Homo sapiens, UniProt P01116, G12D); test: KRAS STD-NMR; assay type: binding; settings: Batch 1; 10 μM KRAS^G12D(GCP), 1000 μM ligand; approximated visually
Experimental: Experiments were recorded with a saturation time Tsat of 2 s and a total recycle delay of 3.6 s with the standard Bruker pulse program stddiffgp19.2. The shaped pulse train was made of G4 pulses with a length of 50 ms at a power of 31 μW. Here on resonance saturation was applied at 100 Hz and off resonance at 20000 Hz. No spin locking was applied to reduce the protein background. Here, 256 scans were applied with a time domain of 32 000 and the watergate delay was set to 90 μs to reduce remaining HDO signal intensity. 10 μM KRAS^G12D(GCP) and 1000 μM ligand was added for the STD NMR experiments and the percent enhancements approximated visually since no additional analysis was performed.

[3] = target: T1, KRAS^G12D(GTP)::CRAF (Homo sapiens, UniProt P01116, G12D); test: KRAS^G12D(GTP)::CRAF AlphaScreen; assay type: biochemical
T1 construct: KRAS^G12D 1–169, N-terminal 6His-tag, C-terminal avi-tag (Xtal BioStructures, Inc.); 6His (N); purchased Xtal BioStructures, Inc. (KRAS); Viva Biotech Ltd. (CRAF)
Experimental: The proteins have been used at these given final assay concentrations:
Test compounds dissolved in DMSO were dispensed onto assay plates (Proxiplate 384 PLUS, white, PerkinElmer; 6008289) using an Access Labcyte Workstation with the Labcyte Echo 555. For the chosen highest assay concentration of 100 μM, 150 nl of compound solution were transferred from a 10 mM DMSO compound stock solution. A series of 11 5-fold dilutions per compound was transferred to the assay plate, and compound dilutions were tested in duplicates. DMSO was added as backfill to a total volume of 150 nl. The assay was run on a fully automated robotic system in a darkened room below 100 Lux. […] After 60 min incubation time 5 μL of AlphaScreen bead mix in assay buffer were added into columns 1–23. Bead mix consisted of AlphaLISA Glutathione Acceptor Beads (PerkinElmer, cat. no. AL109) and Alpha-Screen Streptavidin Donor Beads (perkinElmer cat. no. 6760002) in assay buffer at a final assay concentration of 10 μg/mL each. Plates were kept at room temperature in a darkened incubator. After an additional 60 min incubation time the signal was measured on a PerkinElmer Envision HTS Multilabel Reader using the AlphaScreen specs from PerkinElmer.
IC50 values were calculated and analyzed with Boehringer Ingelheim’s MEGALAB IC50 application using a 4 parametric logistic model.

[4] = target: KRAS “on” (Homo sapiens, UniProt P01116); test: NMR-based fragment screen, KD (NMR); assay type: binding
[5] = Control assay IC50, Batch 2 (resynthesized)
[6] = Batch 1, read-out: KRAS^G12D(GTP)::CRAF AlphaScreen IC50
[7] = Batch 2 (resynthesized), read-out: KRAS^G12D(GTP)::CRAF AlphaScreen IC50
[8] = confirmation screen, read-out: IC50, KRAS^G12D(GTP)::CRAF high-throughput AlphaScreen

biotinylated GST, sequence (P08515 whole entry): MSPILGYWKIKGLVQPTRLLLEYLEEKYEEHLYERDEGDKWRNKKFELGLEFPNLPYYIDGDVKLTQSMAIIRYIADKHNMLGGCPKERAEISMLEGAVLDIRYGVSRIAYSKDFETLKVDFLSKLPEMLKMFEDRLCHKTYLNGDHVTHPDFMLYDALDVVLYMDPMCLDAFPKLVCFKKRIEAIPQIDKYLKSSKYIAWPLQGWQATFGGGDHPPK

Row | Compound | IC50 ([1]; Control assay IC50, Batch 1) | IC50 [1, 5] | IC50 ([1]; Control assay IC50, Batch 3 (NP repurified)) | KRAS STD-NMR percent enhancement [2] | IC50 [3, 6] | IC50 [3, 7] | IC50 ([3]; Batch 3 (NP repurified), read-out: KRAS^G12D(GTP)::CRAF AlphaScreen IC50) | IC50 [3, 8] | Kd [4]
1 | O=C1NCCc2c1[nH]c1c(-c3ccoc3)cccc21 [Cmpd 3, 8-(Furan-3-yl)-2H,3H,4H,9H-pyrido[3,4-b]indol-1-one] | 34 ± 2.6 µM | 69.7 ± 6.7 µM | > 100 µM | 11% | 11 ± 1.5 µM | 51.5 ± 3.5 µM | 78.3 ± 2.9 µM | 8.1 µM | –
2 | O=C1NCCc2c1[nH]c1c(-c3ccncc3)cccc21 [Cmpd 4, 8-(Pyridin-4-yl)-2H,3H,4H,9H-pyrido[3,4-b]indol-1-one] | > 100 µM | > 100 µM | – | 7% | 8.6 ± 0.8 µM | 77.3 ± 55.7 µM | – | 6.3 µM | –
3 | c1ccc2c(Cc3nc4ccncc4[nH]3)c[nH]c2c1 [FBS Hit 1] | > 100 µM | – | – | – | > 100 µM | – | – | – | 1200 µM
4 | Clc1ccc2[nH]c3c(c2c1)CNCC3 [FBS Hit 2] | > 100 µM | – | – | – | > 100 µM | – | – | – | > 2000 µM
